Experiments:
[1] = test system: Nlrp1, Nlrp3, Asc, Casp1, Casp6, Casp11, Casp3; test: inflammasome and caspase expression (PCR, Casp1 western blot); format: in vivo, mouse
Experimental: (§1) VX-765 (Adooq Bioscience, Irvine, CA, USA) was dissolved 5 mg • ml^−1 in 20% cremophor in dH2O[60] (Sigma-Aldrich, ON, Canada) and administered IPWT and J20 mice received three injections per week of either 50 mg • kg^−1 VX-765 or 20% cremophor vehicle for 4 weeks between 2 and 3 months of age. Mice were longitudinally followed starting 4 weeks after the last injection [4-week washout (WO)], then every other month at 12- and 20-week WO (6 and 8 months of age, respectively). Intermediate 8- and 16-week WO periods were also looked at with a smaller number of mice. After each WO period, animals were randomly chosen, independent of behavioural performance, for sacrifice and assigned to either histological or biochemical analysis (Fig. 2a).
Twenty to sixty micrograms of protein or 16 μl of precipitated protein from culture medium were separated on SDS-PAGE or 4–12% NuPAGE Bis-Tris gels (Invitrogen, Carlsbad, CA, USA) with MES buffer (Invitrogen) and transferred onto PVDF membranes (Bio-Rad) according to the manufacturer’s instructions. Membranes were probed with the following antibodies: 1:1000 mouse anti-Aβ1-16 (6E10) (BioLegend, CA, USA), 1:2000 rabbit anti-APP C-terminus (A8717) (Sigma-Aldrich), 1:1000 rabbit anti-neprilysin (Nep, Abcam, ON, Canada), 1:500 rabbit anti-insulin degrading enzyme (IDE, Abcam), 1:3000 rabbit anti-GFAP (Dako), 1:1000 rabbit anti-IL-1β (Abcam), 1:1000 rat anti-Caspase-1 (clone 4B4.2.1, kindly provided by Genentech, San Francisco, CA, USA) and 1:1000 mouse anti-β-actin (Sigma-Aldrich). […] Signals were visualized with the ImageQuant LAS 4000 imaging system and densitometric analyses were performed with Image Gauge analysis software 3.0 (Fujifilm USA, NY, USA). Protein extracts from three independent mice in each group were run together on each blot. Protein levels were normalized to β-actin and expressed as a percentage relative to the vehicle-treated WT group, except for APP which was compared to the vehicle-treated J20 group. Representative full blots are shown in the Source data file. […]

IDE and Nep = IDE and Nep mRNA and protein levels; format: in vivo, mouse; conditions: hippocampus
Experimental: as §1
Twenty to sixty micrograms of protein or 16 μl of precipitated protein from culture medium were separated on SDS-PAGE or 4–12% NuPAGE Bis-Tris gels (Invitrogen, Carlsbad, CA, USA) with MES buffer (Invitrogen) and transferred onto PVDF membranes (Bio-Rad) according to the manufacturer’s instructions. […] Protein levels were normalized to β-actin and expressed as a percentage relative to the vehicle-treated WT group, except for APP which was compared to the vehicle-treated J20 group. […]

Casp11 = test system: Casp11; parameters: method as in Flores et al., Nature Communications 2018; conditions: ref Flores et al., Nature Communications 2018; cited from earlier work
J20 mice = test system: J20 mice; parameters: method as in PMID 30254377; conditions: cited from earlier work
alpha-synuclein = test system: alpha-synuclein; parameters: method as in PMID 27482083; conditions: in vitro; cited from earlier work
[2] = test system: proteolipid protein-synuclein mouse model; parameters: method as in PMID 27482103; conditions: proteolipid protein-synuclein mouse model of multiple systems atrophy; cited from earlier work
in vivo = conditions: female, C57BL/6J, mouse, ip, 50 mg/kg; for half-life: Half-life (t1/2) in plasma; for MRT inf: MRTinf in plasma
Experimental: Plasma, whole brain and CSF concentrations of VX-765 and its active metabolite, VRT-043198, were determined by LC-MS/MS at Paraza Pharma (Montreal, QC, Canada). Fourteen C57BL/6J female mice received a single IP dose of 50 mg · kg^−1 VX-765 and 2 mice per time point were euthanized at 0.25, 0.5, 1, 3, 6, 8 and 24 h post-injection. Mice were isoflurane anesthetized to collect CSF and perform a cardiac puncture followed by whole body perfusion with PBS. Plasma samples were extracted 1:1 in spiking solution and internal standard solution containing 0.1 μM glyburide in acetonitrile. Brain and CSF samples were extracted 1:1 in spiking solution and internal standard solution containing 0.2 μM labetalol in 50:50 methanol:acetonitrile. Samples were centrifuged at 4000 × g for 10 min at 4 °C, the plasma supernatant diluted 1:1 and the brain and CSF supernatant diluted 1:2 in H2O, and 5 μl was injected into a Quantis LC-MS/MS system for analysis.

In the case of `CCO[C@@H]1OC(=O)C[C@@H]1NC(=O)[C@@H]1CCCN1C(=O)[C@@H](NC(=O)c1ccc(N)c(Cl)c1)C(C)(C)C` [VX-765, (S)-1-((S)-2-{[1-(4-amino-3-chloro-phenyl)-methanoyl]-amino}-3,3-dimethyl-butanoyl)-pyrrolidine-2-carboxylic acid ((2R,3S)-2-ethoxy-5-oxo-tetrahydro-furan-3-yl)-amide], the “full-length Casp1 levels (western blot)” value ([1]; J20 cortex, 20-week WO) is reported as “reduced full-length Casp1 levels slightly compared to vehicle-treated J20 mice, but this did not reach statistical significance”, the “Casp1, Casp6, Casp11 and Casp3 hippocampal mRNA levels” value ([1]; hippocampus) is reported as “no differences were observed” and the “Nlrp1, Nlrp3 and Asc hippocampal mRNA levels” value ([1]; hippocampus, vehicle WT, vehicle J20, VX-765 J20) is reported as “did not differ between the three treatment groups at any of the WO periods”. The “Nep mRNA and protein levels” value (IDE and Nep) was “remained unchanged”, the “IDE mRNA or protein levels” value (IDE and Nep; WT vs vehicle- or VX-765-treated J20) was “did not change between WT and vehicle- or VX-765-treated J20 mice” and the “IC50 for Casp11 compared to Casp1” value (Casp11) was “over 100 fold”. The toxicity (J20 mice) was “non-toxic”, the “memory deficits, inflammation, synaptic loss and Aβ accumulation” value (J20 mice; given at the onset of the J20 mouse symptoms) was “reverses spatial and episodic memory deficits, inflammation and synaptic loss, and prevents progressive Aβ accumulation” and the alpha-synuclein toxicity (alpha-synuclein) was “protect against alpha-synuclein toxicity”. For the same compound, the alpha-synuclein toxicity [2] was “protect against alpha-synuclein toxicity”, the concentration at 0.25 h (in vivo; CSF concentration, Mean) was 330 nM and the concentration at 0.5 h (in vivo; CSF concentration, Mean) was 620 nM. For the same compound, the concentration at 1 h (in vivo; CSF concentration, Mean) was 80 nM, the concentration at 3 h (in vivo; CSF concentration, Mean) was 60 nM and the concentration at 6 h (in vivo; CSF concentration, Mean) was 60 nM. The concentration at 8 h (in vivo; CSF concentration, Mean) was 100 nM, the concentration at 0.25 h (in vivo; CSF concentration, Mouse 1) was 210 nM and the concentration at 0.5 h (in vivo; CSF concentration, Mouse 1) was 70 nM. The concentration at 1 h (in vivo; CSF concentration, Mouse 1) was 60 nM, the concentration at 3 h (in vivo; CSF concentration, Mouse 1) was 70 nM and the concentration at 6 h (in vivo; CSF concentration, Mouse 1) was 50 nM. The concentration at 8 h (in vivo; CSF concentration, Mouse 1) was 70 nM, the concentration at 0.25 h (in vivo; CSF concentration, Mouse 2) was 450 nM and the concentration at 0.5 h (in vivo; CSF concentration, Mouse 2) was 1170 nM. The concentration at 1 h (in vivo; CSF concentration, Mouse 2) was 100 nM, the concentration at 3 h (in vivo; CSF concentration, Mouse 2) was 40 nM and the concentration at 6 h (in vivo; CSF concentration, Mouse 2) was 60 nM. For the same compound, the concentration at 8 h (in vivo; CSF concentration, Mouse 2) was 130 nM, the Cmax (in vivo; Cmax in CSF, Mean) was 690 nM and the Cmax (in vivo; Cmax in CSF, Mouse 1) was 210 nM. It also gave a Cmax (in vivo; Cmax in CSF, Mouse 2) of 1170 nM, a Cmax (in vivo; Cmax in brain, Mean) of 160 nM and a Cmax (in vivo; Cmax in brain, Mouse 1) of 240 nM. It also gave a Cmax (in vivo; Cmax in brain, Mouse 2) of 90 nM, a Cmax (in vivo; Cmax in plasma, Mean) of 1590 nM and a Cmax (in vivo; Cmax in plasma, Mouse 1) of 1540 nM. For the same compound, the Cmax (in vivo; Cmax in plasma, Mouse 2) was 1630 nM, the half-life (in vivo; Mean) was 192 min and the half-life (in vivo; Mouse 1) was 193 min. For the same compound, the half-life (in vivo; Mouse 2) was 190 min, the MRT inf (in vivo; Mean) was 313 min and the MRT inf (in vivo; Mouse 1) was 288 min. For the same compound, the MRT inf (in vivo; Mouse 2) was 338 min, the Tmax (in vivo; Tmax in CSF, Mean) was 22.8 min and the Tmax (in vivo; Tmax in CSF, Mouse 1) was 15 min. For the same compound, the Tmax (in vivo; Tmax in CSF, Mouse 2) was 30 min, the Tmax (in vivo; Tmax in brain, Mean) was 22.8 min and the Tmax (in vivo; Tmax in brain, Mouse 1) was 15 min. The Tmax (in vivo; Tmax in brain, Mouse 2) was 30 min, the Tmax (in vivo; Tmax in plasma, Mean) was 45 min and the Tmax (in vivo; Tmax in plasma, Mouse 1) was 30 min. The Tmax (in vivo; Tmax in plasma, Mouse 2) was 60 min, the concentration at 0.25 h (in vivo; brain concentration, Mean) was 160 nM and the concentration at 0.5 h (in vivo; brain concentration, Mean) was 70 nM. It also gave a concentration at 0.25 h (in vivo; brain concentration, Mouse 1) of 240 nM, a concentration at 0.5 h (in vivo; brain concentration, Mouse 1) of 50 nM and a concentration at 0.25 h (in vivo; brain concentration, Mouse 2) of 70 nM. For the same compound, the concentration at 0.5 h (in vivo; brain concentration, Mouse 2) was 90 nM, the concentration at 0.25 h (in vivo; plasma concentration, Mean) was 290 nM and the concentration at 0.5 h (in vivo; plasma concentration, Mean) was 1010 nM. The concentration at 1 h (in vivo; plasma concentration, Mean) was 1250 nM, the concentration at 3 h (in vivo; plasma concentration, Mean) was 400 nM and the concentration at 6 h (in vivo; plasma concentration, Mean) was 330 nM. For the same compound, the concentration at 8 h (in vivo; plasma concentration, Mean) was 320 nM, the concentration at 24 h (in vivo; plasma concentration, Mean) was 10 nM and the concentration at 0.25 h (in vivo; plasma concentration, Mouse 1) was 310 nM. For the same compound, the concentration at 0.5 h (in vivo; plasma concentration, Mouse 1) was 1540 nM, the concentration at 1 h (in vivo; plasma concentration, Mouse 1) was 870 nM and the concentration at 3 h (in vivo; plasma concentration, Mouse 1) was 450 nM. It also gave a concentration at 6 h (in vivo; plasma concentration, Mouse 1) of 430 nM, a concentration at 8 h (in vivo; plasma concentration, Mouse 1) of 200 nM and a concentration at 24 h (in vivo; plasma concentration, Mouse 1) of 8 nM. The concentration at 0.25 h (in vivo; plasma concentration, Mouse 2) was 270 nM, the concentration at 0.5 h (in vivo; plasma concentration, Mouse 2) was 490 nM and the concentration at 1 h (in vivo; plasma concentration, Mouse 2) was 1630 nM. For the same compound, the concentration at 3 h (in vivo; plasma concentration, Mouse 2) was 350 nM, the concentration at 6 h (in vivo; plasma concentration, Mouse 2) was 220 nM and the concentration at 8 h (in vivo; plasma concentration, Mouse 2) was 450 nM. It also gave a concentration at 24 h (in vivo; plasma concentration, Mouse 2) of 14 nM.
